For one data set, the target named is T1, HCV NS5B genotype 1b (Hepatitis C virus genotype 1b, UniProt Q9WMX2).
T1 construct: The protein was expressed with a 21 amino acid C-terminal deletion to remove transmembrane domain; expressed in transfected cells; host or cells: Huh-7
Nature of the data set: 3D-SCREEN assay (NS5B 3D-Screen platform, luciferase reporter gene). Format: cell-based. The following applies: EC50_3DS_NS5B. The text has this: cDNA encoding HCV NS5B genotype 1b, was cloned in frame with Gal4-DNA Binding Domain. The protein was expressed with a 21 amino acid C-terminal deletion to remove transmembrane domain. Expression of NS5BΔ21/Gal4 DBD fusion protein was under control of SV40 early promoter. 3D-Sensor peptide was cloned in frame with VP16 activation domain. Expression of 3D-Sensor/VP16 AD fusion protein was under control of CMV promoter. Expression of the firefly luciferase reporter gene was inducible by the [Target protein/conformation sensitive peptide/VP16AD] complex.
It is a single-target, cell based assay. Briefly, expression of a reporter gene depends on the interaction of a short peptide, thereafter named 3D-Sensor, and native conformation of the target protein. Whenever the conformation of the target protein is modified, interaction between 3D-sensor and target protein is disrupted and reporter gene is not expressed anymore. Conformation modifiers are identified by loss of expression of reporter gene. NS5B 3D-Screen platform was generated in Huh-7 cell lines by transient transfection of three expression vectors encoding respectively
(i) HCV NS5BΔ21/Gal4-DBD fusion protein
(ii) the 3D-sensor peptide I4/VP16 fusion protein
(iii) the firefly luciferase reporter gene
Huh-7 cells were dissociated the day before transfection and seeded in T175 flasks at a density of 10^7 cells in 30 ml culture medium. Equimolar ratios of vectors were transfected in cell according to optimized jetPEI transfection protocol (PolyPlus Transfection, Illkirch, France) and 10 μg total DNA/10^6 cells. Transfection was performed for 2 hours at 37° C. and 5% CO2 in a humidified atmosphere. After two hours cells were dissociated and seeded in 96 wells plates at a density of 25,000 cells per well and 90 μl culture medium. 10 μl of compounds to be tested were added 2 hours after seeding. Final concentration of DMSO was 1%. Cells were incubated in the presence of compounds for 24 hours after which expression of firefly luciferase reporter gene was quantified. Briefly, culture medium was removed and cells were lysed by addition of 100 μl of lysis buffer containing 125 mM Tris Phosphate ph 7.8, 10 mM EDTA, 5 mM DTT, 50% glycerol and 5% Triton. Plates were vortexed 10 min at 1300 rpm. Cell lysat was transferred in OpaqueWhite Assay 96 well Flat Bottom plates. 100 μl of luciferin solution 1× were added to each well. Luciferin solution contained 40 mM Tris Phosphate ph 7.8, 0.2 mM EDTA, 67 mM DTT, 2.14 mM MgCl2, 5.4 mM MgSO4, 4.7×10^−4 M luciferin, 5.3×10^−4 M ATP and 2.7×10^−4 M Acetyl co enzyme A. Luminescence was immediately measured with Berthold Microlumat Plus LB 96V luminometer with an integration of 0.5 sec. Inhibition was calculated using the formula: % inhibition=(1−(read/average max))*100. Average max=signal in absence of compound

The mark [1] stands for this setting: Table 2, titled Replicon assay results.

Each structure is given as a SMILES string. Bounds are passed on as bounds.

`COC(=O)c1ccc(N2C(=O)C(O)=C(C(=O)c3ccc(C)cc3)C2c2ccc(C(C)(C)C)cc2)nc1` (stereo not drawn) displayed a melting point of 287 to 288 °C. On the same count and under the same terms, the figure for `COc1ccc(C(=O)C2=C(O)C(=O)N(c3ccc(C)nn3)C2c2ccc(OC(F)(F)F)cc2)cn1` (stereo not drawn) is 250 to 251 °C; for `CCOc1ccc(C2C(C(=O)c3ccc(C(C)C)cc3)=C(O)C(=O)N2c2ccc(C)nn2)nc1` (stereo not drawn) it is 198 to 199 °C. The same measure, in the same setting: as for `CC(=O)c1ccc(C2C(C(=O)c3ccc(C(C)C)cc3)=C(O)C(=O)N2c2ccc(C)nn2)cc1` (stereo not drawn), the figure is 259 to 266 °C. On the same count and under the same terms, as for `Cc1ccc(N2C(=O)C(O)=C(C(=O)c3ccc(C(C)C)cc3)C2c2ccc(F)cc2)nn1` (stereo not drawn), the figure is 273 to 278 °C; as for `Cc1ccc(N2C(=O)C(O)=C(C(=O)c3ccc(C(C)C)cc3)C2c2ccc(O)cc2)nn1` (stereo not drawn), 222 to 224 °C. Consider `Cc1ccc(N2C(=O)C(O)=C(C(=O)c3ccc(C(C)C)cc3)C2c2ccc(Cn3cnnn3)cc2)nn1` (stereo not drawn), for which the melting point was over 300 °C. Same read-out and setting: the figure for `Cc1ccc(N2C(=O)C(O)=C(C(=O)c3ccc(C(C)C)cc3)C2c2ccc(Cn3cncn3)cc2)nn1` (stereo not drawn) is 223 °C. Regarding `Cc1ccc(N2C(=O)C(O)=C(C(=O)c3ccc(C(C)C)cc3)C2c2ccc(-n3cncn3)cc2)nn1` (stereo not drawn), the melting point came out at 284 °C. Molecule `Cc1ccc(N2C(=O)C(O)=C(C(=O)c3ccc(C(C)C)cc3)C2c2ccc(Cn3cccn3)cc2)nn1` (stereo not drawn) showed a melting point of 263 °C. On the same count and under the same terms, as for `Cc1ccc(N2C(=O)C(O)=C(C(=O)c3ccc(C(C)C)cc3)C2c2ccc(Cn3ccnn3)cc2)nn1` (stereo not drawn), the figure is 293 °C. Same read-out and setting: the figure for `Cc1ccc(N2C(=O)C(O)=C(C(=O)c3ccc(C(C)C)cc3)C2c2ccc(Cn3ncnn3)cc2)nn1` (stereo not drawn) is 271 °C; for `Cc1ccc(N2C(=O)C(O)=C(C(=O)c3ccc(OC(F)(F)F)cc3)C2c2ccc(Cn3ncnn3)cc2)nn1` (stereo not drawn) it is 258 °C; for `Cc1ccc(N2C(=O)C(O)=C(C(=O)c3ccc(OC(F)(F)F)cc3)C2c2ccc(Cn3ccnn3)cc2)nn1` (stereo not drawn) it is 275 °C. `Cc1ccc(N2C(=O)C(O)=C(C(=O)c3ccc(OC(F)(F)F)cc3)C2c2ccc(Cn3nccn3)cc2)nn1` (stereo not drawn): the melting point was determined as 277 °C. Still for that read-out and setting: the figure for `Cc1ccc(N2C(=O)C(O)=C(C(=O)c3ccc(OC(F)(F)F)cc3)C2c2ccc(Cn3cnnn3)cc2)nn1` (stereo not drawn) is over 300 °C; for `Cc1ccc(N2C(=O)C(O)=C(C(=O)c3ccc(OC(F)(F)F)cc3)C2c2ccc(Cn3cncn3)cc2)nn1` (stereo not drawn) it is 224 °C. `Cc1ccc(N2C(=O)C(O)=C(C(=O)c3cccc(Cl)c3)C2c2ccc(C(C)C)cc2)nn1` (stereo not drawn) came in with a melting point of 271 °C. On to `Cc1ccc(N2C(=O)C(O)=C(C(=O)c3ccc(C(C)C)cc3)C2c2ccc(Oc3ccccn3)cc2)nn1` (stereo not drawn), for which the melting point came out at 280 °C. Still for that read-out and setting: the figure for `Cc1ccc(N2C(=O)C(O)=C(C(=O)c3ccc(C(C)C)cc3)C2c2ccc(-c3nnc(C)o3)cc2)nn1` (stereo not drawn) is 293 °C; for `Cc1ccc(N2C(=O)C(O)=C(C(=O)c3ccccc3C)C2c2ccc(C(C)C)cc2)nn1` (stereo not drawn) it is 221 °C; for `COc1cccc(C2C(C(=O)c3ccc(C)cc3)=C(O)C(=O)N2c2ccc(C)nn2)c1` (stereo not drawn) it is 265 °C. The same measure, in the same setting: the figure for `COc1ccc(C2C(C(=O)c3ccc(C)cc3)=C(O)C(=O)N2c2ccc(C)nn2)cc1` (stereo not drawn) is 266 °C; for `COc1ccc(C(=O)C2=C(O)C(=O)N(c3ccc(C)nn3)C2c2ccc(OC)cc2)cc1` (stereo not drawn) it is 259 °C; for `Cc1ccc(C(=O)C2=C(O)C(=O)N(c3ccc(C)nn3)C2c2cccc(C(F)(F)F)c2)cc1` (stereo not drawn) it is 232 °C. The same measure, in the same setting: as for `COC(=O)c1ccc(N2C(=O)C(O)=C(C(=O)c3ccc(C)cc3)C2c2ccc(C(C)C)cc2)nc1` (stereo not drawn), the figure is 264 to 266 °C.

Molecule `COc1ccccc1C1C(C(=O)c2ccc(C)cc2)=C(O)C(=O)N1c1ccc(C)nn1` (stereo not drawn) returned a melting point of 211 to 213 °C. Still for that read-out and setting: as for `Cc1cccc(C(=O)C2=C(O)C(=O)N(c3ccc(C)nn3)C2c2ccc(C(C)C)cc2)c1` (stereo not drawn), the figure is 245 to 250 °C; as for `Cc1ccc(C(=O)C2=C(O)C(=O)N(c3ccc(C(C)C)nn3)C2c2ccc(C(C)C)cc2)cc1` (stereo not drawn), 269 to 270 °C; as for `Cc1ccc(N2C(=O)C(O)=C(C(=O)c3ccc(C(C)C)cc3)C2c2ccc(N3CCN(C)CC3)cc2)nn1` (stereo not drawn), 198 to 203 °C. `Cc1ccc(N2C(=O)C(O)=C(C(=O)c3ccc(C(C)C)cc3)C2c2ccc(OCCN3CCOCC3)cc2)nn1` (stereo not drawn) yielded a melting point of 256 °C.

`Cc1ccc(C(=O)C2=C(O)C(=O)N(c3ccc(C)nn3)C2c2ccc(OC3CCN(C)CC3)cc2)cc1` (stereo not drawn) registered a melting point of 259 to 260 °C. `COc1ccc(C2C(C(=O)c3ccc(N4CCOCC4)cc3)=C(O)C(=O)N2c2ccc(C)nn2)cc1` (stereo not drawn) yielded a melting point of 232 °C. Same read-out and setting: the figure for `Cc1ccc(N2C(=O)C(O)=C(C(=NOCC(=O)O)c3ccc(C(C)C)cc3)C2c2ccc(C(C)C)cc2)nn1` (stereo not drawn) is 234 °C. Still for that read-out and setting: the figure for `Cc1ccc(C(=O)C2=C(O)C(=O)N(c3ccc(C)nn3)C2c2ccc(C)cc2C)cc1` (stereo not drawn) is 254 °C; for `Cc1ccc(C(=O)C2=C(O)C(=O)N(c3ccc(C)nn3)C2c2ccc(OCCN(C)C)cc2)cc1` (stereo not drawn) it is 263 to 266 °C. On to `Cc1ccc(C(=O)C2=C(O)C(=O)N(c3ccc(C(F)(F)F)cn3)C2c2ccc(C(C)C)cc2)cc1` (stereo not drawn), for which the melting point was in the range of 255 to 257 °C.

`Cc1ccc(C(=O)C2=C(O)C(=O)N(c3ccc(C)nn3)C2c2ccc(N3CCN(CCN(C)C)CC3)cc2)cc1` (stereo not drawn): the melting point came out at 185.3 °C.

Molecule `COc1ccc(COc2ccc(C(=O)C3=C(O)C(=O)N(c4ccc(C)nn4)C3c3ccc(OC(F)(F)F)cc3)cc2)cc1` (stereo not drawn) displayed a melting point of 206 to 209 °C. Turning to `COC1=C(C(=O)c2ccc(C)cc2)C(c2ccc(OC(F)(F)F)cc2)N(c2ccc(C)nn2)C1=O` (stereo not drawn), the melting point lay in the range of 206 to 207 °C.

`COC1=C(C(=O)c2ccc(C)cc2)C(c2ccc(C(C)C)cc2)N(c2ccc(C)nn2)C1=O` (stereo not drawn): the melting point was 248 to 249 °C.

The molecule `Cc1ccc(N2C(=O)C(O)=C(C(=O)c3ccc(-c4ccccn4)cc3)C2c2ccc(OC(F)(F)F)cc2)nn1` (stereo not drawn) gave a melting point of 247 to 249 °C.

`Cc1ccc(N2C(=O)C(O)=C(C(=NOCC(=O)O)c3ccc(C(C)C)cc3)C2c2ccc(OC(F)(F)F)cc2)nn1` (mixture of isomers) [Example 83, [[4-Hydroxy-1-(6-methyl-pyridazin-3-yl)-5-oxo-2-(4-trifluoromethoxy-phenyl)-2,5-dihydro-1H-pyrrol-3-yl]-(4-isopropyl-phenyl)-methyleneaminooxy]-acetic acid] had a melting point of 227 °C. On HCV NS5B genotype 1b (Table 1, 3D-SCREEN assay results, Huh-7 cells, 24 hours with compound, firefly luciferase reporter), the EC50 amounted to 8 µM. In the case of `Cc1ccc(N2C(=O)C(OC(=O)C(C)C)=C(C(=O)c3ccc(C(C)C)cc3)C2c2ccc(OC(F)(F)F)cc2)nn1` (stereo not drawn) [Example 186, Isobutyric acid 4-(4-isopropyl-benzoyl)-1-(6-methyl-pyridazin-3-yl)-2-oxo-5-(4-trifluoromethoxy-phenyl)-2,5-dihydro-1H-pyrrol-3-yl ester], the EC50 at HCV NS5B genotype 1b (setting [1]) was under 1 µM. For `Cc1ccc(N2C(=O)C(O)=C(C(=O)c3ccc(C(C)C)cc3)C2c2ccc(C(C)(F)F)nc2)nn1` (stereo not drawn) [Example 187, 5-[6-(1,1-difluoro-ethyl)-pyridin-3-yl]-3-hydroxy-4-(4-isopropyl-benzoyl)-1-(6-methyl-pyridazin-3-yl)-1,5-dihydro-pyrrol-2-one], the EC50 at HCV NS5B genotype 1b (setting [1]) is under 1 µM. Still for that read-out and setting: the figure for `Cc1ccc(N2C(=O)C(O)=C(C(=O)c3ccc(C(C)C)cc3)[C@@H]2c2ccc(C(F)(F)F)nc2)nn1` [Example 194, 3-hydroxy-4-(4-isopropyl-benzoyl)-1-(6-methyl-pyridazin-3-yl)-5(S)-(6-trifluoromethyl-pyridin-3-yl)-1,5-dihydro-pyrrol-2-one] is under 10 µM; for `Cc1ccc(N2C(=O)C(O)=C(C(=O)c3ccc(C(C)C)cc3)[C@@H]2c2ccc(C(C)(F)F)cc2)nn1` [Example 197, 5(S)-[4-(1,1-difluoro-ethyl)-phenyl]-3-hydroxy-4-(4-isopropyl-benzoyl)-1-(6-methyl-pyridazin-3-yl)-1,5-dihydro-pyrrol-2-one] it is under 10 µM.

Values taken from patent publication US20120128630A1, “1-(6 MEMBERS AZO-HETEROCYCLIC)-PYRROLIN-2-ONE COMPOUNDS AS INHIBITORS OF HEPATITIS C NS5B POLYMERASE, THE PHARAMACEUTICAL COMPOSITION THEREOF AND THEIR THERAPEUTIC USE” (priority 2009, published 2012).
